Blank lines part the entries; values can stand above or below the compound they belong to. Active and inactive are the calls of the source.
Assays:
Phospholipase A2 = Phospholipase A2 (Homo sapiens, UniProt P04054); type: functional;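 further: confirmatory dose-response counterscreen on phospholipase A2, testing hits that came from an ultra-high-throughput screen for ATG4B inhibitors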
HEK293 = assay: NOD2 signaling inhibitors in MDP-stimulated cells, cell-based, uHTS, luminescence (AID 2001); type: functional; settings: Homo sapiens
[1] = alpha-synuclein stem-loop luciferase translation blockers – H4 neuroglioma cells, luminescence, confirmation (AID 1988); type: functional, cell-based
[2] = biological target: RAC-gamma serine/threonine-protein kinase (Homo sapiens, UniProt Q9Y243); type: functional
[3] = biological target: Serine/threonine-protein kinase D2 (Homo sapiens, UniProt Q9BZL6); type: functional;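 further: measured against PRKD2 as one member of a kinome-wide kinase profiling panel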
[4] = biological target: Cyclin-dependent kinase 8 (Homo sapiens, UniProt P49336); assay: Navigating the Kinome. Panel member name: CDK8; type: functional
[5] = biological target: Vascular endothelial growth factor receptor 2 (Homo sapiens, UniProt P35968); type: functional
[6] = biological target: Tyrosine-protein kinase Fyn (Homo sapiens, UniProt P06241); type: functional
[7] = biological target: Dual specificity tyrosine-phosphorylation-regulated kinase 1A (Homo sapiens, UniProt Q13627); type: functional;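 further: measured against DYRK1A as one member of a broad kinome profiling panel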
Activin receptor type-1 = Activin receptor type-1 (Homo sapiens, UniProt Q04771); assay: Navigating the Kinome. Panel member name: ACVR1; type: functional
[8] = biological target: Macrophage-stimulating protein receptor (Homo sapiens, UniProt Q04912); assay: Navigating the Kinome. Panel member name: MST1R; type: functional
[9] = biological target: Receptor tyrosine-protein kinase erbB-4 (Homo sapiens, UniProt Q15303); type: functional;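 further: ERBB4 member of a kinome-wide kinase profiling panel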
[10] = biological target: Dual specificity mitogen-activated protein kinase kinase 1 (Homo sapiens, UniProt Q02750); assay: Navigating the Kinome. Panel member name: MAP2K1; type: functional
Dual specificity mitogen-activated protein kinase kinase 1, sequence (Q02750 whole entry, canonical isoform): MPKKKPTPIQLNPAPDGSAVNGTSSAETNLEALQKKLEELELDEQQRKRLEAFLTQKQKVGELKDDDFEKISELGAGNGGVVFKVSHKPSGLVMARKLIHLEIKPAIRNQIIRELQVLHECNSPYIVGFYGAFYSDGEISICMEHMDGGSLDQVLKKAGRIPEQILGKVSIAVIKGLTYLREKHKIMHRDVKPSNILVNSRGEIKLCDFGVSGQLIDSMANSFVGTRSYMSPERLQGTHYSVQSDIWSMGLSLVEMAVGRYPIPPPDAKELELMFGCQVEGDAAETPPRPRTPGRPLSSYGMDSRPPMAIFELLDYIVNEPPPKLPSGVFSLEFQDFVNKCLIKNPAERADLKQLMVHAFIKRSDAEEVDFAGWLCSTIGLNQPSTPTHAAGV

[11] = biological target: Casein kinase I isoform alpha (Homo sapiens, UniProt P48729); type: functional
[12] = biological target: Mast/stem cell growth factor receptor Kit (Homo sapiens, UniProt P10721); type: functional;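 further: KIT entry within a kinase panel assay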
Mast/stem cell growth factor receptor Kit, sequence (P10721 whole entry): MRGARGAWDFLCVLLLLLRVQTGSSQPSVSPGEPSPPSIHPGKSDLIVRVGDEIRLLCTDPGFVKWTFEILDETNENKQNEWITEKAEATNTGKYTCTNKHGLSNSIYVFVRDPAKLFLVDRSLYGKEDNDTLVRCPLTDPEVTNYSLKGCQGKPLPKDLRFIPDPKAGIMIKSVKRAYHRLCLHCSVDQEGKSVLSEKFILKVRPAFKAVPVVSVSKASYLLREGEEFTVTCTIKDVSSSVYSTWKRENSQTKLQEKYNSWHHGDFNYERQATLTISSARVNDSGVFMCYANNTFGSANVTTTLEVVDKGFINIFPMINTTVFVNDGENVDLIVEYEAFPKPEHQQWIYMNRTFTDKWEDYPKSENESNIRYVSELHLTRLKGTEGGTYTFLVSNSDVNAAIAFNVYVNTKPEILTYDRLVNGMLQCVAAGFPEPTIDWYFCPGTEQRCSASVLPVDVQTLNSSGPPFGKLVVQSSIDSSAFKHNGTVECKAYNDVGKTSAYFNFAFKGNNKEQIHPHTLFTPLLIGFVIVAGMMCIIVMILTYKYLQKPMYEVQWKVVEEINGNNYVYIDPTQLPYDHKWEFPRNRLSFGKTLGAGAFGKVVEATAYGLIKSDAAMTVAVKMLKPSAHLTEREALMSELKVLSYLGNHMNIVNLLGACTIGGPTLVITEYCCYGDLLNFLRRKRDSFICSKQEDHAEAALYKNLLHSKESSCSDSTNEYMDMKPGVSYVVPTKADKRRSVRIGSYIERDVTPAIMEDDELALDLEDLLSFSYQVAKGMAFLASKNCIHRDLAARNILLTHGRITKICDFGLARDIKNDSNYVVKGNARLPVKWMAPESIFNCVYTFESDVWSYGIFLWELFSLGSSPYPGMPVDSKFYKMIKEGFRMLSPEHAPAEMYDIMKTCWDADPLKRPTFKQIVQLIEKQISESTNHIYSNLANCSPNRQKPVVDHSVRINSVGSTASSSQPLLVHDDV

[13] = biological target: Testis-specific serine/threonine-protein kinase 1 (Homo sapiens, UniProt Q9BXA7); type: functional
Testis-specific serine/threonine-protein kinase 1, sequence (Q9BXA7 whole entry): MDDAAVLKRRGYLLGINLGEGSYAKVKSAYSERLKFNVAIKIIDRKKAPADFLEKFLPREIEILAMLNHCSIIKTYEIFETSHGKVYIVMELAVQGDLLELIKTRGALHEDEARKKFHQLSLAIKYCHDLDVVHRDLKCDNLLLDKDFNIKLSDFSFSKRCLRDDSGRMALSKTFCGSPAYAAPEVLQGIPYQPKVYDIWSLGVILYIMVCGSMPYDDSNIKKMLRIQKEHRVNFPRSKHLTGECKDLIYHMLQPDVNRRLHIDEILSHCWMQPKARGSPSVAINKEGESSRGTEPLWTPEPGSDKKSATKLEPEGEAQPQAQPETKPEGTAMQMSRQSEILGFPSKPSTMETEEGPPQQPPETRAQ

[14] = biological target: Dual specificity protein kinase CLK4 (Homo sapiens, UniProt Q9HAZ1); type: functional
Dual specificity protein kinase CLK4, sequence (Q9HAZ1 whole entry): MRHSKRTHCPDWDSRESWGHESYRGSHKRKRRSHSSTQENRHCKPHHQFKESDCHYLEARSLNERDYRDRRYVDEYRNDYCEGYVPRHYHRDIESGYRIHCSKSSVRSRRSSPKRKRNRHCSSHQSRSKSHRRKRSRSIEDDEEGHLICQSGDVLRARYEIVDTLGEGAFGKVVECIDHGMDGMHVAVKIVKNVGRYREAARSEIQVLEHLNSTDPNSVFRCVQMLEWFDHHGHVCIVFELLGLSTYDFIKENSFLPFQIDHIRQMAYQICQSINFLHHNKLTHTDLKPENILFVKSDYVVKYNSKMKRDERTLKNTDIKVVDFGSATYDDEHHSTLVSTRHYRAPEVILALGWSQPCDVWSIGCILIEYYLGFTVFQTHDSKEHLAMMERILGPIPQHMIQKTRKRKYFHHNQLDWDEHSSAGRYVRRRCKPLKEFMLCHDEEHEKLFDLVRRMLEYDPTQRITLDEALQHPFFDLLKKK

[15] = biological target: MAP kinase-activated protein kinase 3 (Homo sapiens, UniProt Q16644); type: functional;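 further: value comes from a kinome-wide profiling panel in which MAPKAPK3 is one of the panel members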
[16] = biological target: cAMP-dependent protein kinase catalytic subunit PRKX (Homo sapiens, UniProt P51817); type: functional
cAMP-dependent protein kinase catalytic subunit PRKX, sequence (P51817 whole entry): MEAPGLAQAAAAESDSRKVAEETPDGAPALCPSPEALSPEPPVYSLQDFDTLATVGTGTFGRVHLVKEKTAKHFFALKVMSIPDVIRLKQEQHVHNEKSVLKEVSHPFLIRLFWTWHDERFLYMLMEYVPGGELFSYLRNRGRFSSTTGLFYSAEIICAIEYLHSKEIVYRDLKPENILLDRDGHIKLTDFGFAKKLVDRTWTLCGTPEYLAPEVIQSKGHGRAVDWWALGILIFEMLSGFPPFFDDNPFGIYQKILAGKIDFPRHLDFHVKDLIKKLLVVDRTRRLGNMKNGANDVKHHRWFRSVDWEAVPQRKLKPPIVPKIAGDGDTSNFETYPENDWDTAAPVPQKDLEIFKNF

[17] = biological target: Vascular endothelial growth factor receptor 1 (Homo sapiens, UniProt P17948); type: functional;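 further: measured within a kinome-wide profiling panel, FLT1 as the panel member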
[18] = biological target: Protein kinase C delta type (Homo sapiens, UniProt Q05655); type: functional
[19] = biological target: Receptor tyrosine-protein kinase erbB-2 (Homo sapiens, UniProt P04626); assay: Navigating the Kinome. Panel member name: ERBB2; type: functional
[20] = biological target: Serine/threonine-protein kinase PLK1 (Homo sapiens, UniProt P53350); type: functional;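 further: PLK1 measured as one member of a kinome-wide profiling panel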
[21] = biological target: Rho-associated protein kinase 1 (Homo sapiens, UniProt Q13464); type: functional;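 further: measured within a broad kinome-wide panel profiling many kinases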
Rho-associated protein kinase 1, sequence (Q13464 whole entry): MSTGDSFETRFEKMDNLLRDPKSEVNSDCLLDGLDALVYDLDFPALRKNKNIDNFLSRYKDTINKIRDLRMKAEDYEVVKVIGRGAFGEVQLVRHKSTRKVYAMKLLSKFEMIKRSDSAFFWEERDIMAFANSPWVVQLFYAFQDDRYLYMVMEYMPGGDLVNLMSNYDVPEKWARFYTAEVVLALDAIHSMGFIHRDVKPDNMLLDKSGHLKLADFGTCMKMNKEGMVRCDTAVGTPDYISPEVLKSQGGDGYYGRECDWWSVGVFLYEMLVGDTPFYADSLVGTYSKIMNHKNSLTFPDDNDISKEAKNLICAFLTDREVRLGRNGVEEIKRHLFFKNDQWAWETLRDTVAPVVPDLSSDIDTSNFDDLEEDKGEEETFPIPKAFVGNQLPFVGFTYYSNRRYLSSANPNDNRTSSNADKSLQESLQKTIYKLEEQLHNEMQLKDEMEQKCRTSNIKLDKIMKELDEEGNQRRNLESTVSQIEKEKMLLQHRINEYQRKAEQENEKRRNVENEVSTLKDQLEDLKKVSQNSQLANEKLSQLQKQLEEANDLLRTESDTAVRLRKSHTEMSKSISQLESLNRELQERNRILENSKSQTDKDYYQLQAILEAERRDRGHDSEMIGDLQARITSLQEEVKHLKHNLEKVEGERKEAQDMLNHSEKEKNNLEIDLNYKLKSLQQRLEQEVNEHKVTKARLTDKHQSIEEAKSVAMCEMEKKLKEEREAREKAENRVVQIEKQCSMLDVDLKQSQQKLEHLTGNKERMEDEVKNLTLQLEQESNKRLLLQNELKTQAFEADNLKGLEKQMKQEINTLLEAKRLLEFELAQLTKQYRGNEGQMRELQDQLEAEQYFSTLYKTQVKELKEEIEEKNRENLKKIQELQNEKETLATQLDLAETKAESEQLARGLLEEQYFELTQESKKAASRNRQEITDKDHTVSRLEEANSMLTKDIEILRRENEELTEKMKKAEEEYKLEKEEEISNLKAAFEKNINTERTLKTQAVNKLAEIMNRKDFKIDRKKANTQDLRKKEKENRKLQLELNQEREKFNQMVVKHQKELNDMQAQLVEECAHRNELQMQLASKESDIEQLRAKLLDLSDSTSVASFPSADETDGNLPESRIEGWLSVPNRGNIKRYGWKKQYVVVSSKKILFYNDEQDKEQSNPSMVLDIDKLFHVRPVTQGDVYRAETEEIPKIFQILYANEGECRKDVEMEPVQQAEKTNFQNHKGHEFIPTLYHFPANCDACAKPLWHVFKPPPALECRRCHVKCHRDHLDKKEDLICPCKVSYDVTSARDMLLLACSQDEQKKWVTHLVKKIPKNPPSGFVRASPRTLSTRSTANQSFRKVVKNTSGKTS

[22] = biological target: Serine/threonine-protein kinase Chk1 (Homo sapiens, UniProt O14757); type: functional;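 further: measured as one member of a kinome-wide kinase profiling panel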
[23] = biological target: ALK tyrosine kinase receptor (Homo sapiens, UniProt Q9UM73); type: functional;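 further: ALK tested as one member of a kinase panel screen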
[24] = viability loss of HPDE-C7K cells – cell-based, fluorescence, HTS, primary screen (AID 431); type: functional; settings: Homo sapiens
[25] = cytotoxicity toward HCT116 cells – cell-based, CellTiter-Glo luminescence, IC50, dose response (AID 1117332); type: functional; settings: HCT-116
[26] = biological target: Envelope glycoprotein gp160 (Human immunodeficiency virus 1, UniProt Q6QLK5); assay: cell-free HIV fusion peptide-binding blockers – biochemical, uHTS, fluorescence dequenching, […] (AID 1986)
Envelope glycoprotein gp160, sequence (Q6QLK5 whole entry, the tested form may be a part): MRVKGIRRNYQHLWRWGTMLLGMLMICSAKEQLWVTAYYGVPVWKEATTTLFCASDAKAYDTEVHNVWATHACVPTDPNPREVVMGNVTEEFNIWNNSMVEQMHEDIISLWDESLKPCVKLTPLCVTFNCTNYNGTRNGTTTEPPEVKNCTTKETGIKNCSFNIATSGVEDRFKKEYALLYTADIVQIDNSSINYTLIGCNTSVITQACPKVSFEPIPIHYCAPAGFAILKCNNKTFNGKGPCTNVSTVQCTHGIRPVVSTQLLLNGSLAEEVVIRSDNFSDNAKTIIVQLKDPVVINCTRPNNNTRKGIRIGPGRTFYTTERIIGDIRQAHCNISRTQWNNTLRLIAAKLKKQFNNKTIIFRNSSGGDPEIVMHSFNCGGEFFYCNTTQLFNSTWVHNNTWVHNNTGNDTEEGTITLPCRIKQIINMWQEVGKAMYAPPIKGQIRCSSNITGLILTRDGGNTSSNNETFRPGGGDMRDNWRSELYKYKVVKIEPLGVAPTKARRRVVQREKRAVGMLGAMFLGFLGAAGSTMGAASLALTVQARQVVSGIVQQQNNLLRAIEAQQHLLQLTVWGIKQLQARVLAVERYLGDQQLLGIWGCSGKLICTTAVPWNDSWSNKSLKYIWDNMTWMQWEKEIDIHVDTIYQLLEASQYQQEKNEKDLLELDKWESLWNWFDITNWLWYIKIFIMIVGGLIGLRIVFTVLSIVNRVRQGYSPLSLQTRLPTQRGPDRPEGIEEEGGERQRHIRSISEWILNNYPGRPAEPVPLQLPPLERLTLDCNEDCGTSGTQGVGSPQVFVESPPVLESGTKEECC

[27] = cytotoxicity toward HT-29 cells – cell-based, CellTiter-Glo luminescence, IC50, dose response (AID 1117330); type: functional
[28] = SNU-C1 cell viability reduction, dose response, CellTiter-Glo luminescence (AID 1117323); type: functional, cell-based
[29] = rise of 2N DNA cells, HeLa – IC50, dose response (AID 1117349); type: functional, cell-based
[30] = cytotoxicity toward Colo320 cells – cell-based, CellTiter-Glo luminescence, IC50, dose response (AID 1117334); type: functional; settings: COLO 320
Aminopeptidase N = biological target: T1, Aminopeptidase N (Plasmodium falciparum FcB1/Columbia, UniProt O96935); assay: malaria alanyl aminopeptidase activity blockers – biochemical, fluorogenic H-Leu-NHMec substrate, 1536-well (AID 1445); design: species or system Plasmodium falciparum 3D7, 3D7
T1 sequence (O96935 whole entry): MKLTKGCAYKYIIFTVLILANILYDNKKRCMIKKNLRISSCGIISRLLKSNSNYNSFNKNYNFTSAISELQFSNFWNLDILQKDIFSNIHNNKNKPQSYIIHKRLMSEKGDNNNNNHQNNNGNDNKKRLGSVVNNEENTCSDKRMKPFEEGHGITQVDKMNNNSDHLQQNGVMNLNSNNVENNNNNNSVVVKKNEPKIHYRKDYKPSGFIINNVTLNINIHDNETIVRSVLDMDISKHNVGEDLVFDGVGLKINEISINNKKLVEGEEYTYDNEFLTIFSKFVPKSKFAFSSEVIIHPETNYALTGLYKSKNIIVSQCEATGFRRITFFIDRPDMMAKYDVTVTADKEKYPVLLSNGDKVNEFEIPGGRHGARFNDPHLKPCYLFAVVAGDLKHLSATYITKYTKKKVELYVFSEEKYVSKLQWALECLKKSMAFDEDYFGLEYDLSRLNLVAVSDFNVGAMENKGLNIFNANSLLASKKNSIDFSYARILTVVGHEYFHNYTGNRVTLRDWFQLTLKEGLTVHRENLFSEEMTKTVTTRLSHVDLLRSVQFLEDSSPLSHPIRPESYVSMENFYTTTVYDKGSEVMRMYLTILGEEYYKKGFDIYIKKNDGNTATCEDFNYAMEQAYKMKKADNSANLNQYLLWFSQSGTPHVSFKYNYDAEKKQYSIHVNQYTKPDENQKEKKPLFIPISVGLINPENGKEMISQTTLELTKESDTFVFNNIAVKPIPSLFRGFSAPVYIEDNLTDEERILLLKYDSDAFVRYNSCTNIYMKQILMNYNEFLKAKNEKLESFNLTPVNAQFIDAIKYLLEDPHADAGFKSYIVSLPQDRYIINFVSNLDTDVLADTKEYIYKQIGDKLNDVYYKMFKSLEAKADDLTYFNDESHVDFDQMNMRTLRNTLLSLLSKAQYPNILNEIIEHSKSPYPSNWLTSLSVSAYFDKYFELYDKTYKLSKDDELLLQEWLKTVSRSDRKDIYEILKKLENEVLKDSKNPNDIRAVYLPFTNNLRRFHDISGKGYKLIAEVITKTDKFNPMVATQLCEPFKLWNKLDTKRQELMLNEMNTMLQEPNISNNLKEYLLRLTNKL

Phospholipase A2, sequence (P04054 whole entry): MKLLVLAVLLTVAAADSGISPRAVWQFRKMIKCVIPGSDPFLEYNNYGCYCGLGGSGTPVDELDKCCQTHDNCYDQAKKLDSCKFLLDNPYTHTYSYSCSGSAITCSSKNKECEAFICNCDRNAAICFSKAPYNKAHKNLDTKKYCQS

SMILES: O=C1C=C(N2CCOCC2)c2ccccc2C1=O
IC50 (Phospholipase A2): > 80 µM (inactive)
IC50 (HEK293): 10.3 µM (inactive)
EC50 [1]: 8.41 µM (active)

Ki [2]: > 10 µM (inactive)
Ki [3]: 7.94 µM (active)
Ki [4]: > 3.98 µM (inactive)
Ki [5]: > 2.51 µM (inactive)
Ki [6]: > 3.98 µM (inactive)
Ki [7]: > 3.16 µM (inactive)
Ki (Activin receptor type-1): > 3.98 µM (inactive)
Ki [8]: > 3.98 µM (inactive)
Ki [9]: > 3.98 µM (inactive)
Ki [10]: > 3.16 µM (inactive)
Ki [11]: > 5.01 µM (inactive)
Ki [12]: > 1.26 µM (inactive)
Ki [13]: > 1.58 µM (inactive)
Ki [14]: 2.51 µM (active)
Ki [15]: > 10 µM (inactive)
Ki [16]: > 2.51 µM (inactive)
Ki [17]: > 2.51 µM (inactive)
Ki [18]: > 7.94 µM (inactive)
Ki [19]: > 1.58 µM (inactive)
Ki [20]: > 7.94 µM (inactive)
Ki [21]: > 7.94 µM (inactive)
Ki [22]: > 7.94 µM (inactive)
Ki [23]: > 3.98 µM (inactive)
SMILES: N#Cc1ccc2[nH]c(O)c(-c3ccc(CN4CCOCC4)cn3)c2c1 [AZD-1080]

SMILES: CCc1oc2ccccc2c1C(=O)c1cc(Br)c(O)c(Br)c1 [BENZBROMARONE]
EC50 [24]: 5.29 µM (active)
IC50 [25]: 1.06 µM (active)
IC50 [26]: 12.8 µM (active)
IC50 [27]: 1.14 µM (active)
IC50 [28]: 0.105 µM (active)
IC50 [29]: > 10 µM (inactive)
IC50 [30]: > 20 µM (inactive)
IC50 (Aminopeptidase N): 62.8 µM (active)
